41 molecules from patent US11873298B2, “Compounds and uses thereof” (JANSSEN PHARMACEUTICA NV, priority 2017, dated 2024) can be followed below.

One assay has as its target T1, SCD1 (Homo sapiens, UniProt O00767).
T1 construct: host or cells: S. cerevisiae ole1Δ strain (W303 pdr1Δ pdr3Δ background), plasmid pRS316 with TDH3 promoter and CYC1 terminator
T1 sequence (O00767 1-359): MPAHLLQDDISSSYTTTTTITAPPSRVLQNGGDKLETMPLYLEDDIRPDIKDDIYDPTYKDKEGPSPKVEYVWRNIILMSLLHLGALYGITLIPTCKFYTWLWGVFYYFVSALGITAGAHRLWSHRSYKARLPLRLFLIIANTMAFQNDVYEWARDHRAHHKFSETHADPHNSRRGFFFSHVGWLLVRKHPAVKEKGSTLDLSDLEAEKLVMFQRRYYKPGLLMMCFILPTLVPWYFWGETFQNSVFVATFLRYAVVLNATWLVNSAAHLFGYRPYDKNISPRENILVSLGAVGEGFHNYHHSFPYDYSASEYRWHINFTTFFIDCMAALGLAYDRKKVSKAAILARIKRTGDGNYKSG
Put plainly: Growth inhibition of humanized yeast strain expressing SCD1 as sole desaturase. Type of assay: cell-based. The method in brief: (§1)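 OD600 growth read-out. ole1Δ yeast, pdr1Δ pdr3Δ, with Ole1/SCD1/SCD5 on a plasmid; SX-Ura media throughout; 2× cell density 0.02 in CSM-Galactose; DMSO compound dilutions; humidified 30° C.; Ole1 stopped at 24 h, SCD1/SCD5 at 40 h.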

The next assay addresses T2, SCD5 (Homo sapiens, UniProt Q86SK9).
T2 construct: host or cells: S. cerevisiae ole1Δ strain (W303 pdr1Δ pdr3Δ background), plasmid pRS316 with TDH3 promoter and CYC1 terminator
T2 sequence (Q86SK9 1-330): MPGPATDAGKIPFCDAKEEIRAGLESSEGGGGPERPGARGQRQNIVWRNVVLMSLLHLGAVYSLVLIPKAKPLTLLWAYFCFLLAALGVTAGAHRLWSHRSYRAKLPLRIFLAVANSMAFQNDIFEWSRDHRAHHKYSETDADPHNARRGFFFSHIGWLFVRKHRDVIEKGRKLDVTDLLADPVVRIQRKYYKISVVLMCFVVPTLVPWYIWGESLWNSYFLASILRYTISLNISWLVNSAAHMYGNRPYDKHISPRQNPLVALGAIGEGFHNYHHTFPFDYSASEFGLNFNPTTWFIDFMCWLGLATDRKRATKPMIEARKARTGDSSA
Put plainly: Growth inhibition of humanized yeast strain expressing SCD5 as sole desaturase. Type of assay: cell-based. The essentials: as §1

[1] abbreviates: growth inhibition of humanized yeast strain expressing human SCD1.
Where [2] appears, read: growth inhibition of humanized yeast strain expressing human SCD5.
Where [3] appears, read: humanized yeast strain expressing SCD1.
Setting [4] is: humanized yeast strain expressing SCD5.

As usually defined, the IC50 is the midpoint of a concentration-inhibition curve. Take `O=C(N1CCC(c2noc(-c3ccnc(C4CCOC4)c3)n2)CC1)C1(C(F)(F)F)CC1` (stereo not shown) [Compound 1177]: the IC50 was more than 45 µM on SCD1 (humanized yeast strain, 40 h) and 0.84 µM against SCD5 (humanized yeast strain, 40 h).
As for `O=C(N1CCN(c2noc(-c3ccnc(Cl)c3)n2)CC1)C1(F)CC1` [Compound 1120], the IC50 is more than 45 µM at SCD1 (humanized yeast strain, 40 h) and 32.8 µM against SCD5 (humanized yeast strain, 40 h).
In the case of `CC(C)c1noc2ccc(-c3noc(C4CCNCC4)n3)cc12` [Compound 723], the half-inhibitory concentration (IC50) against SCD1 (setting [1]) and against SCD5 (setting [2]) was more than 45 µM in each case.
Regarding `CC(C)(C)OC(=O)N1CCC(c2noc(-c3cc4c(cnn4C4COC4)cc3F)n2)CC1` [Compound 931], the concentration for half-maximal inhibition (IC50) against SCD1 (humanized yeast strain, 40 h) is more than 45 µM; on SCD5 (humanized yeast strain, 40 h), more than 45 µM.
On to `Cn1ccc(-c2cc(-c3nc(C4CCN(C(=O)OC(C)(C)C)CC4)no3)ccn2)n1` [Compound 1183], for which the IC50 was more than 45 µM at SCD1 (humanized yeast strain, 40 h) and more than 45 µM at SCD5 (humanized yeast strain, 40 h).
As to `CC(C)(C)OC(=O)N1CCC(c2noc(-c3cc4c(Cl)nccn4c3)n2)CC1` [Compound 882], the 50% inhibitory concentration (IC50) was determined as 6.56 µM against SCD1 (humanized yeast strain, 40 h) and 1.91 µM against SCD5 (humanized yeast strain, 40 h).
The like results for `COC(=O)N1CCN(c2nc(-c3ccc4cnn(C5CCOC5)c4c3)no2)CC1` (stereo not shown) [Compound 803] were, in that order, 12.9 µM and 0.679 µM.
Consider `Cc1nn(C)c2cc(-c3noc(C4CCN(C(=O)OC(C)(C)C)CC4(F)F)n3)ccc12` (stereo not shown) [Compound 504], for which the half-maximal inhibitory concentration (IC50) against SCD1 (setting [3]) is more than 45 µM; on SCD5 (setting [4]), 14.8 µM.
Turning to `COC1(C2CCN(c3nc(-c4ccc5cnn(C(C)C)c5c4)no3)CC2)COC1` [Compound 830], the half-maximal inhibitory concentration (IC50) is more than 45 µM at SCD1 (humanized yeast strain, 40 h) and more than 45 µM against SCD5 (humanized yeast strain, 40 h).
With `CCC(=O)N1CCN(c2nc(-c3ccc4cnn(C5CN(C(=O)CC)C5)c4c3)no2)CC1` [Compound 930], the half-maximal inhibitory concentration (IC50) was more than 45 µM at SCD1 (humanized yeast strain, 40 h) and 0.2 µM against SCD5 (humanized yeast strain, 40 h).
As for `CC(C)n1nc(CCS(C)(=O)=O)c2ccc(-c3noc(C4CCN(C(=O)OC(C)(C)C)CC4)n3)cc21` [Compound 766], the 50% inhibitory concentration (IC50) was more than 45 µM against SCD1 (humanized yeast strain, 40 h) and more than 45 µM against SCD5 (humanized yeast strain, 40 h).
`CC(C)n1ncc2ccc(-c3noc(N4CCC5(CCO5)CC4)n3)cc21` [Compound 744]: the IC50 against SCD1 (setting [1]) and against SCD5 (setting [2]) was more than 45 µM in each case.
Turning to `CC1(OC(=O)N2CCC(c3noc(-c4ccnc([C@H]5CCOC5)c4)n3)CC2)CC1` [Compound 1136], the IC50 was more than 45 µM at SCD1 (humanized yeast strain, 40 h) and 0.01 µM against SCD5 (humanized yeast strain, 40 h).
On to `COC(=O)N1CCC(c2noc(-c3ccc4c(C)nn(C)c4c3)n2)CC1` [Compound 921], for which the IC50 at SCD1 (humanized yeast strain, 40 h) is more than 45 µM; against SCD5 (humanized yeast strain, 40 h) it was 3.4 µM.
Consider `O=C1CC(c2noc(-c3ccc4cnn(C5COC5)c4c3)n2)CCN1CC1CC1` (stereo not shown) [Compound 1141], for which the IC50 was more than 45 µM on SCD1 (humanized yeast strain, 40 h) and 0.865 µM against SCD5 (humanized yeast strain, 40 h).
In the case of `COC(=O)N1CCN(c2nc(-c3cccc(C4CCOC4)c3)no2)CC1` (stereo not shown) [Compound 837], the IC50 was more than 45 µM against SCD1 (humanized yeast strain, 40 h) and 12.5 µM on SCD5 (humanized yeast strain, 40 h).
As for `CC(C)n1ncc2ccc(-c3nnc(C4CCN(C(=O)CC5(C)CC5)CC4)[nH]3)cc21` [Compound 691], the IC50 against SCD1 (setting [1]) and against SCD5 (setting [2]) was more than 45 µM each time.
As for `CC(C)(C)OC(=O)N1CCN(c2nc(-c3ccc4cnn(C5COC5)c4c3)no2)CC1` [Compound 664], the half-maximal inhibitory concentration (IC50) on SCD1 (setting [1]) was 23.5 µM; against SCD5 (setting [2]), 0.023 µM.
As to `CC1(CC(=O)N2CCC(c3noc(-c4ccc5cnn(C6COC6)c5c4)n3)CC2)CC1` [Compound 886], the IC50 was 10.6 µM at SCD1 (humanized yeast strain, 40 h) and 0.06 µM against SCD5 (humanized yeast strain, 40 h).
`CC(C)n1ncc2ccc(-c3noc(C4CCN(C(=O)C5(C#N)CC5)CC4)n3)cc21` [Compound 688]: the values for the 50% inhibitory concentration (IC50) at SCD1 (setting [1]) and against SCD5 (setting [2]) were more than 45 µM and 1.5 µM, respectively.
As to `CC(C)n1ncc2ccc(-c3noc(N4C[C@H]5CN(C(=O)C(C)(C)C)C[C@H]5C4)n3)cc21` [Compound 764], the half-maximal inhibitory concentration (IC50) on SCD1 (humanized yeast strain, 40 h) was more than 45 µM; at SCD5 (humanized yeast strain, 40 h) it was 16.7 µM.
In the case of `CCC(=O)N1CCC(c2noc(-c3ccc(F)c(N4CCOCC4)c3)n2)CC1` [Compound 1164], the IC50 against SCD1 (humanized yeast strain, 40 h) was more than 45 µM; against SCD5 (humanized yeast strain, 40 h) it was 0.54 µM.
With `CC(C)n1ncc2ccc(-c3noc(C4CCN(C(=O)CNC(=O)c5cccc(F)c5)CC4(F)F)n3)cc21` (stereo not shown) [Compound 551], the IC50 at SCD1 (setting [3]) and against SCD5 (setting [4]) was more than 45 µM each time.
`CC(C)(C)OC(=O)N1CCN(c2nc(-c3ccc4cn(C5COC5)nc4c3)no2)CC1` [Compound 701]: the 50% inhibitory concentration (IC50) against SCD1 (setting [1]) and against SCD5 (setting [2]) was more than 45 µM throughout.
`CN1CC2CN(c3nc(-c4ccc5cnn(C6COC6)c5c4)no3)CCN2C1=O` (stereo not shown) [Compound 1142]: the half-maximal inhibitory concentration (IC50) was more than 45 µM on SCD1 (humanized yeast strain, 40 h) and more than 45 µM at SCD5 (humanized yeast strain, 40 h).
Consider `O=C(c1ccccc1F)N1CCC(c2noc(-c3ccnc(NC4COC4)c3)n2)CC1` [Compound 1157], for which the IC50 on SCD1 (humanized yeast strain, 40 h) is more than 45 µM; on SCD5 (humanized yeast strain, 40 h), more than 45 µM.
`CC(C)(C)OC(=O)N1CCC(c2noc(-c3ccc4cnn([C@H]5C[C@@H](O)C5)c4c3)n2)CC1` [Compound 933]: the IC50 against SCD1 (humanized yeast strain, 40 h) is more than 45 µM; on SCD5 (humanized yeast strain, 40 h) it was 0.2 µM.
As to `CC(C)C(=O)N1CCC(c2noc(-c3ccc4cnn(C5COC5)c4c3)n2)CC1` [Compound 927], the IC50 is more than 45 µM on SCD1 (humanized yeast strain, 40 h) and 0.14 µM against SCD5 (humanized yeast strain, 40 h).
Regarding `CC(C)n1ncc2ccc(-c3noc(C4CCN(C(=O)OC5(C)CC5)CC4(F)F)n3)cc21` (stereo not shown) [Compound 584], the IC50 against SCD1 (setting [3]) is more than 45 µM; on SCD5 (setting [4]) it was 5.34 µM.
On to `COC(=O)N1CCC(c2noc(-c3ccc4ccn(C5COC5)c4c3)n2)CC1` [Compound 1036], for which the concentration for half-maximal inhibition (IC50) on SCD1 (humanized yeast strain, 40 h) is more than 45 µM; at SCD5 (humanized yeast strain, 40 h), 0.01 µM.
In the case of `CCC(=O)N1CCN(c2noc(-c3ccc4cnn(C5COC5)c4c3)n2)CC(F)(F)C1` [Compound 1038], the IC50 was more than 45 µM against SCD1 (humanized yeast strain, 40 h) and 2.3 µM against SCD5 (humanized yeast strain, 40 h).
For the molecule `CC(C)n1ncc2ccc(-c3nc(N4CCN(C(=O)c5ccccc5Cl)CC4)no3)cc21` [Compound 580], the IC50 on SCD1 (setting [3]) is 14.1 µM; on SCD5 (setting [4]), 0.022 µM.
Turning to `COC(=O)N1CCC(c2noc(-c3ccc4oc(=O)n(C5COC5)c4c3)n2)CC1` [Compound 1031], the IC50 against SCD1 (humanized yeast strain, 40 h) was more than 45 µM; against SCD5 (humanized yeast strain, 40 h) it was 1.13 µM.
Consider `Cc1nn(C)c2cc(-c3noc(C4CCN(C(=O)CNC(=O)c5cccc(C#N)c5)CC4(F)F)n3)ccc12` (stereo not shown) [Compound 604], for which the IC50 on SCD1 (setting [3]) is more than 45 µM; on SCD5 (setting [4]), 6.12 µM.
In the case of `CC(C)(C)OC(=O)N1CCC(c2noc(-c3cc(F)c4cnn(C5COC5)c4c3)n2)CC1` [Compound 860], the IC50 was more than 45 µM against SCD1 (humanized yeast strain, 40 h) and 0.478 µM against SCD5 (humanized yeast strain, 40 h).
As to `CC(C)(C)OC(=O)N1CCC(c2noc(-c3cccc(N4CCOCC4)c3)n2)CC1` [Compound 979], the half-inhibitory concentration (IC50) is more than 45 µM at SCD1 (humanized yeast strain, 40 h) and 0.168 µM at SCD5 (humanized yeast strain, 40 h).
As for `CNC(=O)Cn1ncc2ccc(-c3noc(C4CCN(C(=O)OC(C)(C)C)CC4)n3)cc21` [Compound 644], the 50% inhibitory concentration (IC50) against SCD1 (setting [1]) and against SCD5 (setting [2]) was more than 45 µM each time.
Turning to `O=C(C1CCC1)N1CCN(c2noc(-c3ccc4cnn(C5COC5)c4c3)n2)CC1` [Compound 838], the half-maximal inhibitory concentration (IC50) against SCD1 (humanized yeast strain, 40 h) is more than 45 µM; on SCD5 (humanized yeast strain, 40 h) it was 0.021 µM.
As to `CC(C)C(=O)N1CC[C@H](c2noc(-c3ccc4cnn(C5COC5)c4c3)n2)C[C@H]1C` [Compound 1058], the IC50 at SCD1 (humanized yeast strain, 40 h) was more than 45 µM; against SCD5 (humanized yeast strain, 40 h), 0.00367 µM.
The like results for `CC(C)C(=O)N1CCC(c2noc(-c3ccccc3N3CCOCC3)n2)CC1` [Compound 1167] were, in that order, more than 45 µM and more than 45 µM.
For `CC(C)n1ncc2ccc(-c3noc(C4CCN(C(=O)OC(C)(C)C)C=C4F)n3)cc21` (stereo not shown) [Compound 509], the IC50 at SCD1 (setting [3]) and against SCD5 (setting [4]) was more than 45 µM each time.
